Test results as given in patent publication US10780096B2, “Pyrrolobenzodiazepine-antibody conjugates” (priority 2014, dated 2020).
Like-named read-outs stand apart in the source and are kept apart here.

Columns and labels:
[1] = tested on: CD25-negative Ramos cells; assay: Bystander effect in co-culture of Karpas 299 and Ramos cells, flow cytometry; format: cell-based, human; settings: 96 hour exposure, co-culture with CD25-positive Karpas 299, compared to Ramos cultured alone
Method: FIG. 3. […] The histogram depicts the percentage of viable populations of cells as measured by flow cytometry.
Readout was Karpas 299 and Ramos cell numbers and the viability of these cells both of which were determined by flow cytometry.
Ramos cells are human B lymphocytes of Burkitt's lymphoma.

HuT 78 = assay: MTS cell proliferation assay, in vitro cytotoxicity; format: cell-based; settings: HuT 78, cutaneous T cell lymphoma, CD25 negative, 96 hours
Method: (§1) FIG. 2. In vitro cytotoxicity of ADCT-301 on six lymphoma cell lines as measured by the MTS cell proliferation assay. Cells were incubated with increasing concentrations of ADCT-301 for 96 hours. Data is presented as the mean±SD
(§2) Cell surface protein copy number of CD25 and CD30 was determined on various lymphoma cell lines by flow cytometric Qifikit® assay. Cytotoxicity of ADCT-301 on these cell lines was determined by cell proliferation assay (MTS) to determine whether there is a correlation between CD25 copy number and in vitro cytotoxic potency.

HDLM-2 = assay: as above; format: cell-based; settings: HDLM-2, Hodgkin's lymphoma, CD25 expressing, 96 hours
Method: as §1, §2

SU-DHL-1 = assay: as above; format: cell-based; settings: SU-DHL-1, anaplastic large cell lymphoma, CD25 expressing, 96 hours
Method: as §1, §2

Daudi = assay: as above; format: cell-based; settings: Burkitt's lymphoma, CD25 negative, 96 hours
Method: as §1, §2

Karpas 299 = assay: as above; format: cell-based; settings: Karpas 299, anaplastic large cell lymphoma, CD25 expressing, 96 hours
Method: as §1, §2

L540 = assay: as above; format: cell-based; settings: L540, Hodgkin's lymphoma, CD25 expressing, 96 hours
Method: as §1, §2

[2] = tested on: CD25-negative Burkitt lymphoma Ramos cells; assay: Conditioned media transfer from SuDHL-1 culture to Ramos cells, MTS assay; format: cell-based, human; settings: media conditioned by 48 hr culture of CD25-positive SuDHL-1 cells; second culture 96 hrs
Method: FIG. 6. Comparison of CD25−ve bystander cytotoxicity observed with cleavable vs. non-cleavable linkers by in vitro conditioned media transfer. […] The error bars indicate % cell viability±SD of 3 independent repeats
The effect of linker cleavablility was investigated in conditioned media transfer experiments. In these experiments, a first 48 hr culture CD25-positive SuDHL-1 cells was performed with either (1) of ADCT-301 (cleavable linker), or (2)NC-1 (composed of the recombinant human IgG1, HuMax®-TAC against human CD25 attached to a pyrrolobenzodiazepine PBD warhead with non-cleavable linker according to the alternative aspect of the disclosure).

[3] = tested on: CD25-negative Ramos cells; settings: second culture 96 hrs
Method: FIG. 5. […] Data is presented as the mean±SD.
In these experiments, an first 48 hr culture of either (A) CD25-negative cells Ramos cells, or (B) CD25-positive Karpas 299, with ADCT-301 was performed. When this first culture was complete, the culture was centrifuged and 50 μl of the supernatant media transferred to 50 μl of a freshly prepared culture of either (A) CD25-negative cells Ramos cells, or (B) CD25-positive Karpas 299. This second culture was performed for 96 hrs, then cytotoxicity assessed by the MTS assay.

[4] = tested on: CD25-positive SuDHL-1 cells; assay: Cytotoxicity on CD25-positive SuDHL-1 cells, cleavable vs non-cleavable linker; format: cell-based; settings: direct treatment of CD25-positive SuDHL-1 cells
human CD25 = target: T1, human CD25 (Homo sapiens, UniProt P01589); assay: Flow cytometry binding of ADCT-301-FITC on concanavalin-A activated CD25-positive human PBMCs; settings: CD25-PE gate
T1 construct: endogenous in cells
T1 sequence (P01589 22-272): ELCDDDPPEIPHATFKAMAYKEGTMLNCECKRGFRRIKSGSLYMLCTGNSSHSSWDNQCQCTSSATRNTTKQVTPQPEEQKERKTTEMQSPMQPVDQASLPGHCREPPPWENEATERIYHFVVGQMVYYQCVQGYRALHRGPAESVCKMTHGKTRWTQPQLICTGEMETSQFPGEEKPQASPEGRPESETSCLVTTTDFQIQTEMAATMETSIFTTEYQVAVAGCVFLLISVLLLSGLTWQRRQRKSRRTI
Method: FIG. 1. Affinity of ADCT-301 for human CD25 as determined by flow cytometry on concanavalin-A activated CD25-positive human PBMCs. ADCT-301-FITC binding was assessed in a CD25-PE (phycoerythrin) gate across the dilution series by measuring median fluorescent intensity (MFI) in channel FL1H. Isotype, non-targeting-ADC-FITC was used as the non-binding ADC control.
Relative binding affinity of ADCT-301 was measured by flow cytometry on Concanavalin A-activated CD25-positive lymphocytes. Surface plasmon resonance (SPR, Biacore) was used to measure binding affinity and binding kinetics of HuMax®-TAC and ADCT-301 on recombinant sCD25 ectodomain attached to a gold surface.

ADCT-301: recombinant human IgG1, HuMax-TAC against human CD25 attached to a pyrrolobenzodiazepine PBD warhead, cleavable linker; drug-antibody ratio 2.3±0.3; HuMax-TAC-E of WO2014/57119
Bystander killing of Ramos cells in co-culture [1]: specific bystander killing of Ramos cells
GI50 (HuT 78): > 10 nM
Mean GI50 (HuT 78): >>150 ng/ml
GI50 (HDLM-2): 0.0511 nM
Mean GI50 (HDLM-2): 7.67 ng/mL
GI50 (SU-DHL-1): 0.0165 nM
Mean GI50 (SU-DHL-1): 2.48 ng/mL
GI50 (Daudi): > 10 nM
Mean GI50 (Daudi): >>150 ng/ml
GI50 (Karpas 299): 0.0365 nM
Mean GI50 (Karpas 299): 5.47 ng/mL
GI50 (L540): 0.0216 nM
Mean GI50 (L540): 3.25 ng/mL
Cytotoxicity to Ramos cells of conditioned media [2]: shows cytotoxicity of CD25-negative Burkitt lymphoma Ramos cells
Cytotoxicity to Ramos cells of conditioned media ([3]; media conditioned by 48 hr culture of CD25+ve Karpas299 cells): potent cytotoxicity
Cytotoxicity to Ramos cells of conditioned media ([3]; media conditioned by 48 hr culture of CD25-ve Ramos cells): does not lead to any observable increase in cytoxicity
Sensitivity of SuDHL-1 cells to treatment [4]: equally sensitive
EC50 (affinity for human CD25, median fluorescent intensity) (human CD25): ≈ 0.03 μg/ml
